# Reference: patent US9320272B2, “Microbial composition” (Rohm and Haas Company, priority 2011, dated 2016)
# “And” between values parts separate entries of the source, which are not always exact repeats. Equal values may be shown once.
# Key:
# [1] = tested on: Escherichia coli (E. coli - ATCC #10536); assay: Automated assessment of efficacy in surfactant base (2.85% sodium cocoyl glycinate + 1.85% sodium lauroamphoacetate, pH 10), 15 seconds exposure; assay type: cell-based; conditions: for MBC (% w/v): in 2.85% sodium cocoyl glycinate + 1.85% sodium lauroamphoacetate solution at pH 10, E. coli, 15 seconds exposure; for Δ OD 450 nm = OD450 (time zero) − OD450 (time = 16 hours), Mean / Δ OD 590 nm OD590 (time = 16 hours) − OD590 (time zero), Mean / No. of replicates showing growth (out of 4): model surfactant solution pH 10, 15 s exposure; for Δ OD 450 nm = OD450 (time zero) − OD450 (time = 16 hours), Mean / Δ OD 590 nm OD590 (time = 16 hours) − OD590 (time zero), Mean: 4 replicates
# Method: In these examples, the efficacy of combinations of actives were tested in a surfactant cleansing formulation comprising 2.85% sodium cocoyl glycinate and 1.85% sodium lauroamphoacetate.
# This corresponds to a 50% in use dilution with water of a neat formulation containing 5.7% cocoyl glycinate and 3.7% sodium lauroamphoacetate during hand washing.
# Solutions were prepared such that the concentrations of the surfactant components and test actives were 1.1× the final desired concentration in order to allow for dilution with the bacterial inoculum in the test. The solutions were manually adjusted to pH 10.0 by dropwise addition of sodium hydroxide solution, as measured with a pH meter at ambient temperature.
# The efficacy of the combinations of the present invention was determined against Escherichia coli (E. coli—ATCC #10536), at a concentration of approximately 1×10^8 bacteria per mL.
# Tests were conducted using standard microliter plate assays using an automated liquid handling system. 270 μl of the surfactant test solution was pipetted into each well of the microtitre plate and 30 μl of the bacterial suspension was then added. After exactly 15 seconds of bacterial exposure, a 30 μl volume of bacterial cells was withdrawn and transferred to 270 μl of D/E quench solution. After 5 minutes in the D/E quench, the optical density (OD) was measured for each plate in turn at two specific wavelengths (450 nm and 590 nm). These provide a dual check of antimicrobial activity, as the OD450 reading is specific for the yellow colour of D/E quench when bacterial growth is observed, whereas OD590 is specific for the initial purple colour of the D/E quench which is retained if no bacterial growth is observed. After the time zero OD measurements, plates were then incubated at 37° C. overnight (16 hours) before repeating the OD measurements. Delta CD values were calculated by subtracting […] the initial value at time zero. Bacterial growth is observed as an increase in OD450 and a decrease in ΔOD590. To identify antibacterially efficacious systems (those preventing appreciable bacterial growth after incubation), the following threshold changes in OD readings have been adopted: if (1), OD450 increases by less than 0.2 absorbance unit on incubation and (2), OD590 decreases by less than 0.35 unit on incubation. Conversely, where OD450 increases by more than 0.2 AU and OD590 decreases by more than 0.35 unit after incubation, corresponding to a colour shift from purple to yellow, the test system allows bacterial growth and is not deemed efficacious. Four replicate measurements in the same plate have been made for each test system. The number of replicate wells showing either bacterial growth or no growth is also readily assessed by eye by following the colour change.
# Dose responses for individual components and binary mixtures of actives at a fixed concentration ratio were generated by sequential dilution of liquors with further surfactant solution to obtain a series of endpoints.
# In some selected cases, the combinations were also tested at the weight ratio 1.1.
# [2] = tested on: Escherichia coli (E. coli - ATCC #10536); assay: Synergy test: high resolution MBC microtiter plate assay in phosphate buffer containing 35% dipropylene glycol, 15 seconds contact; assay type: cell-based; conditions: for QA: concentration of first component (A) acting alone which produced an end point (MBC of Compound A); Qa with Qb = 0 / QB: concentration of second component (B) acting alone which produced an end point (MBC of Compound B); Qb with Qa = 0: E. coli 10536, complete kill in 15 seconds, phosphate buffer with 35% DPG; for SI (Synergy Index = Qa/QA + Qb/QB): E. coli 10536, less than one = synergy, one = additivity, greater than one = antagonism
# From the text: One measure of synergy is the industrially accepted method described by Kull, F. C.; Eisman, P. C.; Sylwestrowicz, M. D, and Mayer, R. L., in Applied Microbiology 9:538-541 (1961), using the ratio determined by the formula: Qa/QA+Qb/QB=Synergy Index (“SI”) wherein; QA=concentration of compound A (first component) in percent, acting alone, which produced an end point (MBC of Compound A), Qa=concentration of compound A in percent, in the mixture, which produced an end point. QB=concentration of compound B (second component) in percent, acting alone, which produced an end point (MBC of Compound B). Qb=concentration of compound B in percent, in the mixture, which produced an end point.
# When the sum of Qa/QA and Qb/QB is greater than one, antagonism is indicated. […] The lower the SI, the greater is the synergy shown by that particular mixture. The minimum biocidal concentration (MBC) of a microbicide is the lowest concentration tested under a specific set of conditions that provides complete kill of the tested microorganisms.
# Synergy tests were conducted using standard microliter plate assays with phosphate buffer containing 35% dipropylene glycol (DPG). In this method, a wide range of combinations of chemicals was tested by conducting high resolution. MBC assays of Component (A) in the presence of various concentrations of Component (B). High resolution MBCs were determined by adding varying amounts of microbicide to one column of a microliter plate and doing subsequent […] dilutions using an automated liquid handling system to obtain a series of closely spaced endpoints. The MBC plate was inoculated one column at a time with the test microorganism. An aliquot of the inoculated well was transferred at 15 seconds to a plate containing a neutralizing agent (EVE Neutralizing Broth), mixed and held for 5 minutes before being transferred to a growth plate containing trypticase soy broth (TSB). The TSB plate was incubated at 37° C. and read for the presence/absence of growth at 24 hours. The lowest level tested that provided complete kill (as evidenced by no growth in the microtitre plate) of the test organisms in 15 seconds is the minimum biocidal concentration (MBC).
# The synergy of the combinations of the present invention was determined against a bacterium, Escherichia coli (E. coli—ATCC #10536), at a concentration of approximately 1×10^8 bacteria per mL. This microorganism is representative of natural contaminants in many consumer and industrial applications.
SMILES,MBC (% w/v) [1],QA: concentration of first component (A) acting alone which produced an end point (MBC of Compound A); Qa with Qb = 0 [2],SI (Synergy Index = Qa/QA + Qb/QB) [2],"Δ OD 450 nm = OD450 (time zero) − OD450 (time = 16 hours), Mean ([1]; single active at 0.2% w/v)","Δ OD 590 nm OD590 (time = 16 hours) − OD590 (time zero), Mean ([1]; single active at 0.2% w/v)",No. of replicates showing growth (out of 4) ([1]; single active at […] w/v),"Δ OD 590 nm OD590 (time = 16 hours) − OD590 (time zero), Mean ([1]; single active at […] w/v)",further results
"Cc1cc(O)c(C(C)C)cc1Cl [4-chloro-2-isopropyl-5-methylphenol, reference compound]",>0.2 % w/v,–,–,–,–,–,–,–
Oc1ccc(C2CCCC2)cc1 [4-cyclopentylphenol],>0.2 % w/v,0.2 weight %,1.00,–,–,–,–,–
"CC(C)(C)c1ccc(O)c(O)c1 [4-tert-butylbenzene-1,2-diol]",–,0.8 weight % and 1.0 weight %,1.00,–,–,–,–,–
Oc1ccccc1C1CCCC1 [2-cyclopentylphenol],>0.2 % w/v,0.2 weight % and 0.6 weight % and 0.3 weight %,1.00,–,–,–,–,–
"C=CC(C)(O)CCC=C(C)C (racemic) [3,7-dimethylocta-1,6-dien-3-ol]",>0.5 % w/v,–,1.0,−0.53,0.60,–,–,"Δ OD 450 nm = OD450 (time zero) − OD450 (time = 16 hours), Mean ([1]; single active at 0.5% w/v): −0.30; Δ OD 590 nm OD590 (time = 16 hours) − OD590 (time zero), Mean ([1]; single active at 0.5% w/v): 0.50; QB: concentration of second component (B) acting alone which produced an end point (MBC of Compound B); Qb with Qa = 0 [2]: 0.5 weight %"
Oc1ccc(Cc2ccccc2)cc1 [4-hydroxydiphenylmethane],>0.2 % w/v,0.6 weight % and 0.5 weight %,1.00,−0.52,0.61,4,0.54,"No. of replicates showing growth (out of 4) ([1]; single active at 0.1% w/v): 4; Δ OD 450 nm = OD450 (time zero) − OD450 (time = 16 hours), Mean ([1]; single active at 0.1% w/v): −0.58; Δ OD 590 nm OD590 (time = 16 hours) − OD590 (time zero), Mean ([1]; single active at 0.1% w/v): 0.52; No. of replicates showing growth (out of 4) ([1]; single active at 0.2% w/v): 4; Δ OD 450 nm = OD450 (time zero) − OD450 (time = 16 hours), Mean ([1]; single active at […] w/v): −0.55"
"Oc1cccc2c1CCCC2 [5,6,7,8-tetrahydronaphthalen-1-ol]",>0.2 % w/v,0.6 weight % and 0.5 weight %,1.00,–,–,–,–,–
"CC(C)=CCC/C(C)=C\CO [cis-3,7-dimethyl-2,6-octadien-1-ol]",>0.5 % w/v,–,–,−0.53,0.60,4,0.61,"Δ OD 450 nm = OD450 (time zero) − OD450 (time = 16 hours), Mean ([1]; single active at 0.5% w/v): −0.14; Δ OD 590 nm OD590 (time = 16 hours) − OD590 (time zero), Mean ([1]; single active at 0.5% w/v): 0.40; QB: concentration of second component (B) acting alone which produced an end point (MBC of Compound B); Qb with Qa = 0 [2]: 0.5 weight % and 0.25 weight %"
Oc1ccccc1Cc1ccccc1 [2-hydroxydiphenylmethane],>0.2 % w/v,0.8 weight % and 1.0 weight % and 0.6 weight %,1.00,−0.51,0.63,4,0.64,"No. of replicates showing growth (out of 4) ([1]; single active at 0.1% w/v): 4; Δ OD 450 nm = OD450 (time zero) − OD450 (time = 16 hours), Mean ([1]; single active at 0.1% w/v): −0.51; Δ OD 590 nm OD590 (time = 16 hours) − OD590 (time zero), Mean ([1]; single active at 0.1% w/v): 0.62; No. of replicates showing growth (out of 4) ([1]; single active at 0.2% w/v): 4; Δ OD 450 nm = OD450 (time zero) − OD450 (time = 16 hours), Mean ([1]; single active at […] w/v): −0.49"
"Oc1ccc2c(c1)CCCC2 [5,6,7,8-tetrahydronaphthalen-2-ol]",>0.2 % w/v,0.6 weight % and 0.3 weight % and 0.5 weight %,1.00,–,–,4,0.30,"Δ OD 450 nm = OD450 (time zero) − OD450 (time = 16 hours), Mean ([1]; single active at […] w/v): −1.59"
"Cc1cc(O)cc(C)c1Cl [4-chloro-3,5-dimethylphenol]",>0.2 % w/v,0.6 weight % and 0.3 weight %,1.00,–,–,–,–,–
"Cc1ccc(C(C)C)c(O)c1O [3-isopropyl-6-methylbenzene-1,2-diol]",–,0.8 weight % and 1.0 weight %,1.00,–,–,–,–,–
"CC(C)=CCC/C(C)=C/CO [(E)-3,7-dimethylocta-2,6-dien-1-ol]",>0.5 % w/v,–,–,–,–,4,–,"No. of replicates showing growth (out of 4) ([1]; single active at 0.3% w/v): 4; Δ OD 450 nm = OD450 (time zero) − OD450 (time = 16 hours), Mean ([1]; single active at 0.3% w/v): −0.51; Δ OD 590 nm OD590 (time = 16 hours) − OD590 (time zero), Mean ([1]; single active at 0.3% w/v): 0.59; No. of replicates showing growth (out of 4) ([1]; single active at 0.5% w/v): 4; Δ OD 450 nm = OD450 (time zero) − OD450 (time = 16 hours), Mean ([1]; single active at 0.5% w/v): −0.45; Δ OD 590 nm OD590 (time = 16 hours) − OD590 (time zero), Mean ([1]; single active at 0.5% w/v): 0.62; QB: concentration of second component (B) acting alone which produced an end point (MBC of Compound B); Qb with Qa = 0 [2]: 0.3 weight % and 0.2 weight %"
